Experiments:
Crz1-GFP = experiment: Fluorescence microscopy of Crz1-GFP nuclear accumulation; assay type: cell-based, S. cerevisiae; details: 3.6 µM, then 3 mM MnCl2; YAA3 cells; MnCl2 only 55.6%
Experimental: YAA3 cells were treated with 3.6 µM of 11β,13-dihydrolactucin or 12.5 µM of FK506 for 90 min, followed by incubation with or without 3 mM MnCl2 for further 90 min. On the last 10 min of incubation, 10 µg/mL of Hoechst 33,342 (Sigma) nuclear dye were added. Cells were washed and resuspended in 5 µL of 1,4-Diazabicyclo[2.2.2]octane (DABCO, triethylenediamine) DABCO solution (200 mM DABCO in 75% (v/v) glycerol, 25% (v/v) PBS) (Sigma-Aldrich). The preparations were monitored for GFP fluorescence as previously described using a Zeiss Imager Z2 (Zeiss, Germany) fluorescence microscope. Photographs were taken with an Axiocam 506 mono (Zeiss). Three images were taken and analyzed for each sample, each one containing ≈ 600 individual cells. Images were analyzed using Fiji-ImageJ 1.53f (NIH, Bethesda, MD, USA).

calcineurin-Crz1 pathway = experiment: β-Galactosidase CDRE-lacZ yeast reporter assay of Crz1 activation; assay type: cell-based, S. cerevisiae; details: Saccharomyces cerevisiae
Experimental: Cultures at OD600= 0.5 ± 0.05 were diluted to OD600= 0.1 ± 0.01, transferred to 96-well microplate and challenged with the highest nontoxic concentration previously determined for each compound to investigate their putative inhibitory effect towards the calcineurin-responsive zinc finger (Crz1) activation. Measurements of β-galactosidase activity driven by the calcineurin-dependent response element (CDRE) regulated lacZ reporter gene allowed the quantitative assessment of the capacity of each compound to inhibit the activation of Crz1. FK506 (Cayman Chemicals, Ann Arbor, MI, USA) was used as a positive control at a final concentration of 12.5 μM. After 90 min of incubation with the respective compounds at 30 °C under orbital shaking, MnCl2 (Merck, Saint Louis, MO, USA) was added at a final concentration of 3 mM. After 90 min of incubation under the same conditions, OD600 of cultures were recorded, 10 μL of cell suspensions were transferred to a new 96-well plate followed by addition of 20 μL Y-PER cell lysis reagent (ThermoFisher Scientific), and the plates were incubated for 20 min at 37 °C without agitation. 240 μL of LacZ buffer (8.5 g/L Na2HPO4 (ROTH), 5.5 g/L NaH2PO4.H2O (Merck), 0.75 g/L KCl (Panreac), 0.246 g/L MgSO4.7H2O (Merck) containing […] o-nitrophenyl β-D-galactopyranoside (ONPG) (Sigma–Aldrich®—Poole, Dorset, UK) was added to each well, and plates were incubated at 30 °C for 2 h. The OD420 and OD550 were monitored using a Biotek Power Wave XS Microplate Spectrophotometer (Biotek® Instruments, Winooski, VT, USA). The results were expressed as Miller units (MU), applying the following equation, where V = volume of culture assayed in mL; t = reaction time in minutes: Miller unit = 1000 × (OD420 − 1.75 × OD550)/(t × V × OD600)(1)

Caco-2 cells = experiment: Permeability across Caco-2 monolayer (apical concentration by LC-MS); details: Caco-2 monolayer
Experimental: For intestinal permeability assessments of pure SLs, Caco-2 cells were seeded in 12 mm Transwell® inserts (polyester membrane, 0.4 μm pore size, Corning Costar Corp., NY, USA) at a density of 1.0 × 10^5 cell/cm^2. Cells were allowed to grow and differentiate to a confluent monolayer for 21 days postseeding with medium change three times per week. This mimics the apical and basolateral sides of the intestinal mucosa. Before the permeability assay, cells were washed with Hank’s balanced salt solution (HBSS) (Gibco, Life Technologies, Paisley, UK), and pure SLs in HBSS were added to the apical side for 4 h at the noncytotoxic concentration of 10 μM, while the basolateral well was replaced by HBSS. The fluorescent marker fluorescein (2.7 µM) was used as control, having been submitted to the same protocol as the SLs. Cells were submitted to an orbital shaking of 125 rpm (Ohaus, Shanghai, China), and samples from the basolateral side were collected after 15 min, 30 min, and then every hour until the end of the assay, and each time the retrieved volume was replaced by fresh HBSS to maintain sink conditions. After the 4 h assay, both apical and basolateral contents were collected, the cells were washed with PBS followed by culture medium, and culture medium was added to both compartments for 24 h to assess monolayer recovery. All samples were stored at −80 °C until LC-MS analysis.
Transepithelial electrical resistance (TEER) of all monolayers was monitored before and during experiments, and 24 h after the assay, to ensure their integrity using an EVOM™ voltmeter (WPI, Berlin, Germany). Before each experiment, TEER was measured and only monolayers with a TEER value higher than 500 Ω cm^2 were used. Experiments were done in triplicate.
Ultra High Performance Liquid Chromatography (UHPLC) separations were performed with a Dionex U3000 UHPLC coupled with a U3000 Photo Diode Array (PDA) and an LTQ-Orbitrap XL Mass Spectrometry (MS) system (Thermo-Fisher Ltd., Hemel Hempstead, UK). The MS and PDA systems were tuned and calibrated according to the manufacturers recommended procedures. The UHPLC was operated under Xcalibur and Chromeleon software (Thermo-Fisher Ltd. UK). A flow rate of 300 µL/min was applied, the column and guard (Synergi C18 Hydro-RP 80 Ä, 150 × 2.0 mm, 4 µm particle size; Phenomenex Ltd. U.K.) were maintained at a temperature of 30 °C. The solvent system compositions were, A: HPLC grade water (J.T. Baker, Scientific Chemical Supplies Ltd. UK), and solvent B: HPLC grade acetonitrile (J.T. Baker, Scientific Chemical Supplies Ltd. UK), both acidified with 0.1% MS grade formic acid (Ultima, Fisher Scientific, UK). A sample injection volume of 10 µL was employed in partial-loop mode. The gradient program was as follows: hold 2% B 0–2 min, 2–5% B 2–5 min, 5–45% B 5–25 min, 45–100% B 25–35 min, hold 100% B 35–38 min, 100–2% B 38–39 min, hold 2% B 39–44 min. Autosampler syringe and line washes were performed with 2:8 HPLC grade water: acetonitrile (J.T. Baker, Scientific Chemical Supplies Ltd., UK). The HPLC column eluent was first monitored by the U3000 PDA detector where spectra were collected in wavelength/absorbance mode from 200–600 nm. Additionally, three channel set points were employed, Channel A 210 nm, Channel B 260 nm, Channel C 320 nm. Spectra were collected with a filter bandwidth of 8 nm and wavelength step of 1 nm, the scan rate was 5 Hz.
The UHPLC eluent was next transferred to a Thermo LTQ-Orbitrap XL mass spectrometry system operated under Xcalibur (Thermo-Fisher Ltd. UK). For the first two minutes of analysis the UHPLC eluent was diverted to waste, from two to 39 min the eluent was directed to the MS detector, before being diverted back to waste between 39–44 min. Mass spectra were collected in centroid mode with a primary full scan event (m/z 100–1000) at a mass resolution of 30,000 (FWHM defined at m/z 400) within the Fourier Transform (FT) detector.

[1] = tested on: Crz1 target genes PMR1 and GSC2; experiment: qRT-PCR of Crz1 target genes; assay type: cell-based, S. cerevisiae; details: 3.6 µM, 3 mM MnCl2, qPCR
Experimental: The qRT-PCR analyses were performed as previously described. Briefly, total RNA was extracted using the RNeasy Mini kit (QIAGEN). After cleaning, 4 μg of total RNA was used for reverse-transcription with SuperScript™ II Reverse Transcriptase (Invitrogen). The qRT-PCR was performed in a QuantStudio™ 5 (Applied Biosystems), using SensiFAST™ SYBR Lo-ROX Kit (Bioline) to evaluate expression of the PMR1 (‘5-[…]-3′; 5′-[…]-3′) (GeneID: 852709), and GSC2 (5′-[…]-3′; 5′-[…]-3′) (GeneID: 852920) genes. Both ACT1 (5′-GATCATTGCTCCTCCAGAA-3′; 5′-[…]-3′) and PDA1 (5′-[…]-3′; 5′-[…]-3′) were used as reference genes. The results were expressed as relative mRNA expression levels relative to activation condition (mRNA levels a.u.) of at least three independent biological replicates ± SEM.

`CC1=C2C(=O)C=C(CO)C2C2OC(=O)C(C)C2C(O)C1` (stereo not drawn) [11β,13-dihydrolactucin] was tested, and the “Percentage of cells with nuclear Crz1-GFP” value (Crz1-GFP) was 21%, the inhibition at 12.5 µM (calcineurin-Crz1 pathway; read-out: Calcineurin-Crz1 Inhibition (%) ± SD, 12.5 µM, MnCl2 3 mM activation, strain YAA5) was 43 ± 8% and the IC50 (calcineurin-Crz1 pathway; read-out: IC50 for Crz1 inhibition) was 2350 ± 1450 nM. The inhibition at 3.6 µM (calcineurin-Crz1 pathway; read-out: Inhibition of Crz1 activation (dose response assay), 3.6 µM, MnCl2 activation) was ≤ 54%, the “% of Decrease in SL Concentration in the Apical Side (t = 4h)” value (Caco-2 cells; 10 µM apical, 4 h vs t = 0 h) was 8.7% and the “SL conjugates with cysteine in the apical side after 4 h” value (Caco-2 cells; LC-MS) was “not detected”. For the same molecule, the “Concentration of SL (Apical Side) t = 4 h” value (Caco-2 cells; SL added at 10 µM apical, after 4 h) was 8.3 ± 1.4 µM, the “Concentration of SL (Apical Side) t = 0 h” value (Caco-2 cells; SL added at 10 µM apical, before experiment) was 9.1 ± 1.3 µM and the “GSC2 mRNA expression” value [1] was “downregulated”. The “PMR1 mRNA expression” value [1] was “downregulated”.

Reference: PMC7699524, “Assessing the Intestinal Permeability and Anti-Inflammatory Potential of Sesquiterpene Lactones from Chicory” (Nutrients, 2020)
